Results: patent US6417235B2, “Method and use of α-amino-β-mercapto-ethane derivatives as dicarbonyl scavengers for treatment of conditions resulting from protein, lipid, and DNA damage” (University of Kentucky Research Foundation, priority 2000, dated 2002)

Test system: glycation of histone H1 by ADP-ribose
Experiment: Screening of inhibitors of nonoxidative advanced glycation: AGE-fluorescence on 96 well-microtiter plate
Format: biochemical, calf
Details: (± SEM, n = 2); for AGE-fluorescence (day 5): complete reaction under air
Procedure: All operations were carried out at 4° C. Chromatin was isolated from fresh calf thymus by extraction with 0.14 M NaCl, 0.05 M Na2S2O5, as described earlier in Wondrak supra. After repeated extraction with 5% HCl)4 and centrifugation (1500 g), histone H1 was precipitated from the supernatant by addition of TCA (20% final concentration v/v). The histone H1 precipitate was colleted by centrifugation (12,000 g) and deionized water. After extensive dialysis (MW cut-off: 12,000-14,000) against water for 48 h, the sample was lyophilized and the protein was stored at 4° C. SDS-PAGE (12%) was used to analyze the purity of the preparation.
Earlier studies have reported that D-penicillamine inhibits collagen crosslinking and AGE fluorescence caused by sugars (McPherson, J. D., Shilton, B. H., and Walton, D. J. 1988. Role of Fructose in Glycation and Cross-Linking of Proteins. Biochemistry 27, 1901-1907) and reaction of D-penicillamine with aldehyde groups of proteins (Deshmukh, K., and Nimm, M. E. 1969. A Defect in the Intramolecular and Intermolecular Cross-linking of Collagen caused by Penicillamine. J. Biol. Chem. 244, 1787-1795). A number of different penicillamines and penicillamine derivatives were tested to determine the inhibition of AGE-fluorescence on histone H1 at physiological pH. The reaction conditions for the glycation of histone H1 by ADP-ribose mimic physiological conditions to the extent possible. Reaction mixtures contain 1.5 mg/ml histone Hl, 1.0 mM ADP-ribose, 50 mM potassium phosphate buffer, pH 7.4, 37° C. D,L-penicillamine; L-penicillamine; D-penicllamine; D-penicillaminedisulfide and N,S- isopropylidine-D-penicillamine were tested in concentrations of 1,5 and 10 mM. The detected reaction parameter representing the accumulation of protein damage is AGE-fluorescence ((λex=[…]), which is suppressed by the presence of a compound with inhibitory activity. Generation of AGE-type fluorescence (λex=355 nm; λem=405 nm) was monitored over time at 37° C; which is in the range of the broad excitation/emission maxima of AGE compounds. To allow high throughput sample processing on 96 well microtiter plates, the reaction volumes are 300 μl. Fluorescence on the 96-well microtiter plates was measured using an automated microtiter fluorescence reader. Fluorescence of the 1 ml samples of the glycation reaction mixtures was measured using a Hitachi F-200 fluorescence spectophotometer, and prior to measurement the protein sample is dialyzed extensively against water (MW cutoff=[…]), lyophilized and reconstituted in reaction buffer. For inhibitor screening the plate is read on a Fluoroskan II plate reader (Titertek, ICN) at the excitation/emission wavelengths set forth above at a bandwidth of 35 nm.
The following screening scheme is used (see Table 1): AGE-fluorescence is determined at the beginning and after five days of incubation. Test compounds that are inherently fluorescent (designated false negatives) were identified by the initial fluorescence measurement (See Table 1, NADH for example). Since these are compounds of uncertain activity, they are diverted directly to the second stage of the screen. Aminoguanidine, a known glycation inhibitory agent, was used as a positive control for suppression of the increase on AGE-fluorescence. After five days incubation and plate reading, fluorescence quenchers (designated false positives) are excluded by measuring the quenching activity of the test compound by addition of AGE modified protein having known fluorescence activity to one microtiter plate well containing test compound in the complete reaction mixture. For this, AGE-BSA is used as the AGE-type fluorescence standard. This AGE-BSA test excludes false positives compounds that function by fluorescence quenching. If fluorescence quenching occurs the test compound is excluded from further screening. […] The protein is visualized by silver staining of the gel. […]

| Compound | AGE-fluorescence (day 0) (compound 1 mM) | AGE-fluorescence (day 5) (compound 1 mM) | AGE-fluorescence (day 0) (compound 5 mM) | AGE-fluorescence (day 5) (compound 5 mM) | AGE-fluorescence (day 0) (compound 10 mM) | AGE-fluorescence (day 5) (compound 10 mM) |
| --- | --- | --- | --- | --- | --- | --- |
| NC(CCS)C(=O)O (racemic) [D,L-Homocysteine] | 1.3 (0.0) relative units | 16 (1.1) relative units | 1.2 (0.2) relative units | 22 (0.1) relative units | 1.1 (0.1) relative units | 27 (1.7) relative units |
| N[C@@H](CCC(=O)N[C@@H](CS)C(=O)NCC(=O)O)C(=O)O [GSH, glutathione] | 1.3 (0.0) relative units | 19 (0.3) relative units | 1.1 (0.3) relative units | 17 (0.3) relative units | 1.1 (0.0) relative units | 14 (0.5) relative units |
| CC(C)(S)C(N)C(=O)O (racemic) [D,L-Penicillamine] | 1.1 (0.2) relative units | 13 (0.0) relative units | 1.1 (0.1) relative units | 2.7 (0.0) relative units | 1.1 (0.1) relative units | 1.7 (0.0) relative units |
| O=C1CC(=O)NC(=S)N1 [2-Thiobarbituric acid] | 1.1 (0.1) relative units | 12 (0.4) relative units | 1.2 (0.1) relative units | 5.3 (0.4) relative units | 1.3 (0.1) relative units | 2.3 (0.0) relative units |
| NCCS [Cysteamine] | 1.0 (0.1) relative units | 10 (0.6) relative units | 1.1 (0.1) relative units | 9.0 (0.7) relative units | 1.2 (0.2) relative units | 6.0 (0.3) relative units |
| CC(=O)N[C@@H](CS)C(=O)O [NAC] | 1.2 (0.2) relative units | 11 (0.6) relative units | 1.0 (0.1) relative units | 10 (0.4) relative units | 1.1 (0.1) relative units | 9.4 (0.6) relative units |
| N[C@@H](CS)C(=O)O [L-Cys] | 1.2 (0.1) relative units | 14 (0.3) relative units | 1.1 (0.1) relative units | 11 (0.2) relative units | 1.2 (0.1) relative units | 9.0 (0.2) relative units |
| C[N+](C)(C)[C@@H](Cc1c[nH]c(=S)[nH]1)C(=O)[O-] [L-Ergothioneine] | 1.0 (0.1) relative units | 13 (0.0) relative units | 1.2 (0.0) relative units | 9.3 (0.2) relative units | 1.2 (0.1) relative units | 7.4 (0.1) relative units |
| COC(=O)[C@@H](N)CS [L-Cys-OMe] | 1.2 (0.1) relative units | 15 (0.1) relative units | 1.3 (0.1) relative units | 12 (0.8) relative units | 1.2 (0.1) relative units | 9.0 (0.2) relative units |
| L-Cys-Gly | 1.3 (0.3) relative units | 17 (0.0) relative units | 1.2 (0.2) relative units | 26 (0.4) relative units | 1.2 (0.1) relative units | 40 (0.0) relative units |
| NC(=O)C1=CN([C@@H]2O[C@H](COP(=O)(O)OP(=O)(O)OC[C@H]3O[C@@H](n4cnc5c(N)ncnc54)[C@H](O)[C@@H]3O)[C@@H](O)[C@H]2O)C=CC1 [NADH] |  |  | 52 (0.3) relative units | 31 (0.0) relative units |  |  |
